Measurements from patent US20230265116A1, “DEGRADATION OF (EGFR) BY CONJUGATION OF EGFR INHIBITORS WITH E3 LIGASE LIGAND AND METHODS OF USE” (BEIGENE, LTD., priority 2020, published 2023).
Where two headings read alike, the source gives them in different places.

Key:
Assay type in all cases: cell-based
[1] = test system: EGFR Del19/C797S (H1975-clone #23); assay: EGFR degradation HTRF assay, H1975-clone #23 DC cells; conditions: for H1975 #23 DC Dmax (%): maximum percentage of degradation
Outline: (§1)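 Read-out is an HTRF EGFR signal (337 nm excitation, 665/620 nm) from lysates of mutant-EGFR H1975 clones in which only the exogenous EGFR survives knockout. Treatment ran 16h at 37° C. from 10 uM final downward in 5-fold steps. DC50 comes from a logistic fit and Dmax is the maximal degradation.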

[2] = test system: EGFR Del19/T790M/C797S (H1975-clone #28); assay: EGFR degradation HTRF assay, H1975-clone #28 DTC cells
Outline: as §1

[3] = target: T1, EGFR L858R/T790M/C797S (BaF3-LTC cells) (Homo sapiens, UniProt P00533, C797S/L858R/T790M); assay: EGFR degradation HTRF assay, BaF3-LTC cells
T1 construct: expressed in transfected cells; host or cells: BaF3
Outline: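 EGFR remaining after a 16 h, 37 °C exposure (8 doses, 5-fold steps from 10 uM final, 0.2% DMSO) was quantified by HTRF antibodies in cell lysate. Percent inhibition relative to DMSO control was fitted by four-parameter logistic to give DC50; Dmax denotes maximal degradation.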

[4] = target: T2, EGFR L858R/C797S (BaF3 LC cells) (Homo sapiens, UniProt P00533, C797S/L858R); assay: EGFR degradation HTRF assay, BaF3 LC cells
T2 construct: expressed in transfected cells; host or cells: BaF3

[5] = H1975 #23 DC, 16h treatment, read-out: H1975 #23 DC DC50
[6] = H1975 # 28 DTC cells; EGFR degradation, IC50 (DC50) from curve fit; read-out: DC50(nM) H1975 # 28 DTC
[7] = H1975 # 28 DTC cells; maximum percentage of inhibition (degradation)
[8] = BaF3-LTC cells; EGFR degradation, IC50 (DC50) from curve fit; read-out: DC50(nM) BaF3-LTC
[9] = BaF3-LTC cells; maximum percentage of inhibition (degradation); read-out: Dmax (%) BaF3-LTC
[10] = BaF3 LC, 16h treatment, maximum percentage of degradation; read-out: BaF3 LC Dmax (%)
[11] = BaF3 LC, 16h treatment; read-out: BaF3 LC DC50

T2 sequence (P00533 25-1210 C797S/L858R): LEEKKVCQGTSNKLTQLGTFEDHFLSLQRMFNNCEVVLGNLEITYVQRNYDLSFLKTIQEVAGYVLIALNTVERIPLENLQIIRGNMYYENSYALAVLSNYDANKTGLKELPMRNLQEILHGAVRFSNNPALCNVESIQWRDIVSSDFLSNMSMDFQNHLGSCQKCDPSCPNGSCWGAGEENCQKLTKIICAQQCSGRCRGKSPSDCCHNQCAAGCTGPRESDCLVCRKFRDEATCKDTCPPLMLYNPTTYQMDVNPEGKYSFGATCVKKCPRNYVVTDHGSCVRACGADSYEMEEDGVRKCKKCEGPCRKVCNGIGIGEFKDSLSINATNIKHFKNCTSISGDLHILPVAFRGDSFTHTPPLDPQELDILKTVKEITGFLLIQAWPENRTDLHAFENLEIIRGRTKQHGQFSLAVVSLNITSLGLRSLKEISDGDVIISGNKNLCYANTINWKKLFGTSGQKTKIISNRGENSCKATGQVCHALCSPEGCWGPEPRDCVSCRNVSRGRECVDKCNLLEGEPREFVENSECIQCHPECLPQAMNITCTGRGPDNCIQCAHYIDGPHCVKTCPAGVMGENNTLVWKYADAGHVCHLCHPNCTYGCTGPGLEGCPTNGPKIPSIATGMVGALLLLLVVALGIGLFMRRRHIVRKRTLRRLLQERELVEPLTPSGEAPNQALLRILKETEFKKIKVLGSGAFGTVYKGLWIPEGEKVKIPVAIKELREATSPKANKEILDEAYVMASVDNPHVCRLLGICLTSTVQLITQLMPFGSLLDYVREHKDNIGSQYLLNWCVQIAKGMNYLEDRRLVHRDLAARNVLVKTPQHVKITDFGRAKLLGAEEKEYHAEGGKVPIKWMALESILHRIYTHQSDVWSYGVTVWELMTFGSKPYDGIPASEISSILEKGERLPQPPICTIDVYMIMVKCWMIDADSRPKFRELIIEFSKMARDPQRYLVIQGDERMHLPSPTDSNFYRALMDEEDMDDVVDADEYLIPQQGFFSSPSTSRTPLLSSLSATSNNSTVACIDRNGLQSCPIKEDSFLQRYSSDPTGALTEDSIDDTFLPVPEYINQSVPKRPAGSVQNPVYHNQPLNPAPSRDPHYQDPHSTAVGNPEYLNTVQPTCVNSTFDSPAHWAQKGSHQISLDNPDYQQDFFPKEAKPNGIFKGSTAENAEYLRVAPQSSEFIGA
T1 sequence (P00533 25-1210 T790M/C797S/L858R): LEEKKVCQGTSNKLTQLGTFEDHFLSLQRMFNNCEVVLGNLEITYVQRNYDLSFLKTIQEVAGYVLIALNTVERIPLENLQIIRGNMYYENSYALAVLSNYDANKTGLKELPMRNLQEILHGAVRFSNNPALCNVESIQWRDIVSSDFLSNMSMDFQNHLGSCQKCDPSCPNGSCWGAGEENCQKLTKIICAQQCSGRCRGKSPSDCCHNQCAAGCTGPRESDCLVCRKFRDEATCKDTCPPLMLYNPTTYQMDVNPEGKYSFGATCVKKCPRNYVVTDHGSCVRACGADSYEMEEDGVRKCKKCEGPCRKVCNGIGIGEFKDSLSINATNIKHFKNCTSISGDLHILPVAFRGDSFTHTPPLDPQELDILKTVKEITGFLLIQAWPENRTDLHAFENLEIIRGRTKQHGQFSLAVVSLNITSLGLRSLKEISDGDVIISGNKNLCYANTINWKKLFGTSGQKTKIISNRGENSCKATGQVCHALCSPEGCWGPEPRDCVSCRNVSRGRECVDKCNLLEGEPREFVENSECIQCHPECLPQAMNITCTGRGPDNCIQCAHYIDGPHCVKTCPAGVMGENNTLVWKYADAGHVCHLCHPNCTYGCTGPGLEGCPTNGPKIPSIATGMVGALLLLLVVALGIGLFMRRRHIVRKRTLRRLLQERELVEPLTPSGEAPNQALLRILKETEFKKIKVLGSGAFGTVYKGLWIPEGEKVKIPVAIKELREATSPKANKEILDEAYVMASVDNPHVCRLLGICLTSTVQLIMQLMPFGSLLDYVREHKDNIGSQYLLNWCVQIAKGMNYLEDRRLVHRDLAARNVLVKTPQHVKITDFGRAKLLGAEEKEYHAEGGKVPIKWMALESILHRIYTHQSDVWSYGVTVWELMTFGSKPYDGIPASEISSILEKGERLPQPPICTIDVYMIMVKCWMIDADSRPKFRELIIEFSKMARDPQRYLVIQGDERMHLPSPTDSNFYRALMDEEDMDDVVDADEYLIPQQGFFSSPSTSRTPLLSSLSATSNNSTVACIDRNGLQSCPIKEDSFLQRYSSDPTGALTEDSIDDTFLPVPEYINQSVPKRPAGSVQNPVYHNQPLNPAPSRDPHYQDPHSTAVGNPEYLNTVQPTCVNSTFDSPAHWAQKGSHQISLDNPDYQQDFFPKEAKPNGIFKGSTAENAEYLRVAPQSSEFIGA

DC50 [1, 5] [nM]	DC50 [2, 6] [nM]	DC50 [3, 8] [nM]	Dmax [3, 9] [%]	Dmax [4, 10] [%]	DC50 [4, 11] [nM]	Compound	H1975 #23 DC Dmax (%) ([1]; 16h treatment)	Dmax (%) H1975 # 28 DTC [2, 7] [%]	DC50 ([1]; read-out: H1975 #23 DC DC50, 16h treatment) [nM]	DC50 ([2]; read-out: DC50(nM) H1975 # 28 DTC; H1975 # 28 DTC cells; EGFR degradation, IC50 (DC50) from curve fit) [nM]	DC50 ([3]; read-out: DC50(nM) BaF3-LTC; BaF3-LTC cells; EGFR degradation, IC50 (DC50) from curve fit) [nM]	Dmax ([3]; read-out: Dmax (%) BaF3-LTC, BaF3-LTC cells; maximum percentage of inhibition (degradation)) [%]	Dmax ([4]; BaF3, read-out: BaF3 LC Dmax (%)) [%]	DC50 ([4]; read-out: BaF3 LC DC50; BaF3 LC, 16h treatment) [nM]	Dmax (%) BaF3-LTC ([3]; BaF3-LTC cells; maximum percentage of inhibition (degradation)) [%]	BaF3 LC Dmax (%) ([4]; BaF3 LC, 16h treatment, maximum percentage of degradation)
5.9	1.01	17	87.4	74.6	51.6	CCc1cc(Nc2ncc(Br)c(Nc3ccc4c(=O)n(C5CC5)ncc4c3P(C)(C)=O)n2)c(OC)cc1N1CCC(N2CCN(CCc3cc(F)c(C4CCC(=O)NC4=O)c(F)c3)CC2)CC1 (stereo not shown) [Example 521, 3-(4-(2-(4-(1-(4-((5-bromo-4-((2-cyclopropyl-5-(dimethylphosphoryl)-1-oxo-1,2-dihydrophthalazin-6-yl)amino)pyrimidin-2-yl)amino)-2-ethyl-5-methoxyphenyl)piperidin-4-yl)piperazin-1-yl)ethyl)-2,6-difluorophenyl)piperidine-2,6-dione]	75.56	80.24	–	–	–	–	–	–	–	–
7.68	0.57	4.13	–	–	16.4	CCc1ccc2c(P(C)(C)=O)c(Nc3nc(Nc4cc(CC)c(N5CCC(N6CCN(C(=O)C7CN(c8cc(F)c([C@H]9CCC(=O)NC9=O)c(F)c8)C7)CC6)CC5)cc4OC)ncc3Br)ccc2n1 [Example 755, (R)-3-(4-(3-(4-(1-(4-((5-bromo-4-((5-(dimethylphosphoryl)-2-ethylquinolin-6-yl)amino)pyrimidin-2-yl)amino)-2-ethyl-5-methoxyphenyl)piperidin-4-yl)piperazine-1-carbonyl)azetidin-1-yl)-2,6-difluorophenyl)piperidine-2,6-dione]	69.09	84.62	–	–	–	–	–	–	–	–
2.95	0.962	6.56	–	–	12.4	CCOc1cc(N2CCC(N3CCN(CCc4cccc5c4n(CC)c(=O)n5C4CCC(=O)NC4=O)CC3)CC2)c(CC)cc1Nc1ncc(Br)c(Nc2ccc3nc(CC)ccc3c2P(C)(C)=O)n1 (stereo not shown) [Example 504, 3-(4-(2-(4-(1-(4-((5-bromo-4-((5-(dimethylphosphoryl)-2-ethylquinolin-6-yl)amino)pyrimidin-2-yl)amino)-5-ethoxy-2-ethylphenyl)piperidin-4-yl)piperazin-1-yl)ethyl)-3-ethyl-2-oxo-2,3-dihydro-1H-benzo[d]imidazol-1-yl)piperidine-2,6-dione]	78.25	75.99	–	–	–	–	–	–	–	–
3.17	0.925	9.43	–	–	8.88	CCOc1cc(N2CCC(N3CCN(CCc4ccc(F)c5c4oc(=O)n5C4CCC(=O)NC4=O)CC3)CC2)c(CC)cc1Nc1ncc(Br)c(Nc2ccc3nc(CC)ccc3c2P(C)(C)=O)n1 (stereo not shown) [Example 505, 3-(7-(2-(4-(1-(4-((5-bromo-4-((5-(dimethylphosphoryl)-2-ethylquinolin-6-yl)amino)pyrimidin-2-yl)amino)-5-ethoxy-2-ethylphenyl)piperidin-4-yl)piperazin-1-yl)ethyl)-4-fluoro-2-oxobenzo[d]oxazol-3(2H)-yl)piperidine-2,6-dione]	68.68	77.6	–	–	–	–	–	–	–	–
3.05	0.946	3.49	–	–	13.2	CCOc1cc(N2CCC(N3CCN(CCc4cccc5c4C4(CC4)C(=O)N5C4CCC(=O)NC4=O)CC3)CC2)c(CC)cc1Nc1ncc(Br)c(Nc2ccc3nc(CC)ccc3c2P(C)(C)=O)n1 (stereo not shown) [Example 571, 3-(4′-(2-(4-(1-(4-((5-bromo-4-((5-(dimethylphosphoryl)-2-ethylquinolin-6-yl)amino)pyrimidin-2-yl)amino)-5-ethoxy-2-ethylphenyl)piperidin-4-yl)piperazin-1-yl)ethyl)-2′-oxospiro[cyclopropane-1,3′-indolin]-1′-yl)piperidine-2,6-dione]	75.83	77.08	–	–	–	–	–	–	–	–
2.7	0.634	2.72	–	–	4.9	CCc1ccc2c(P(C)(C)=O)c(Nc3nc(Nc4cc(C)c(N5CCC(N6CCN(CCc7cccc8c7n(C)c(=O)n8C7CCC(=O)NC7=O)CC6)CC5)cc4OC4CC4)ncc3Br)ccc2n1 (stereo not shown) [Example 584, 3-(4-(2-(4-(1-(4-((5-bromo-4-((5-(dimethylphosphoryl)-2-ethylquinolin-6-yl)amino)pyrimidin-2-yl)amino)-5-cyclopropoxy-2-methylphenyl)piperidin-4-yl)piperazin-1-yl)ethyl)-3-methyl-2-oxo-2,3-dihydro-1H-benzo[d]imidazol-1-yl)piperidine-2,6-dione]	70.66	79.5	–	–	–	–	–	–	–	–

More lines, now with the values behind:

Compound	DC50 [1, 5] [nM]	DC50 [2, 6] [nM]	DC50 [3, 8] [nM]	Dmax [3, 9] [%]	Dmax [4, 10] [%]	DC50 [4, 11] [nM]	H1975 #23 DC Dmax (%) ([1]; 16h treatment)	Dmax (%) H1975 # 28 DTC [2, 7] [%]	DC50 ([1]; read-out: H1975 #23 DC DC50, 16h treatment) [nM]	DC50 ([2]; read-out: DC50(nM) H1975 # 28 DTC; H1975 # 28 DTC cells; EGFR degradation, IC50 (DC50) from curve fit) [nM]	DC50 ([3]; read-out: DC50(nM) BaF3-LTC; BaF3-LTC cells; EGFR degradation, IC50 (DC50) from curve fit) [nM]	Dmax ([3]; read-out: Dmax (%) BaF3-LTC, BaF3-LTC cells; maximum percentage of inhibition (degradation)) [%]	Dmax ([4]; BaF3, read-out: BaF3 LC Dmax (%)) [%]	DC50 ([4]; read-out: BaF3 LC DC50; BaF3 LC, 16h treatment) [nM]	Dmax (%) BaF3-LTC ([3]; BaF3-LTC cells; maximum percentage of inhibition (degradation)) [%]	BaF3 LC Dmax (%) ([4]; BaF3 LC, 16h treatment, maximum percentage of degradation)
CCOc1cc(N2CCC(N3CCN(CCc4cc5oc(=O)n(C6CCC(=O)NC6=O)c5cc4F)CC3)CC2)c(CC)cc1Nc1ncc(Br)c(Nc2cc(F)c3nc(CC)ccc3c2P(C)(C)=O)n1 (stereo not shown) [Example 498, 3-(6-(2-(4-(1-(4-((5-bromo-4-((5-(dimethylphosphoryl)-2-ethyl-8-fluoroquinolin-6-yl)amino)pyrimidin-2-yl)amino)-5-ethoxy-2-ethylphenyl)piperidin-4-yl)piperazin-1-yl)ethyl)-5-fluoro-2-oxobenzo[d]oxazol-3(2H)-yl)piperidine-2,6-dione]	0.377	2.1	7.62	91.4	92.9	0.718	66.76	86.84	–	–	–	–	–	–	–	–
CCOc1cc(N2CCC(N3CCN(CCc4ccc(C)c5c4oc(=O)n5C4CCC(=O)NC4=O)CC3)CC2)c(CC)cc1Nc1ncc(Br)c(Nc2ccc3nc(CC)ccc3c2P(C)(C)=O)n1 (stereo not shown) [Example 470, 3-(7-(2-(4-(1-(4-((5-bromo-4-((5-(dimethylphosphoryl)-2-ethylquinolin-6-yl)amino)pyrimidin-2-yl)amino)-5-ethoxy-2-ethylphenyl)piperidin-4-yl)piperazin-1-yl)ethyl)-4-methyl-2-oxobenzo[d]oxazol-3(2H)-yl)piperidine-2,6-dione]	9540	> 10000	418	80.5	86.6	300	64.89	39.87	–	–	–	–	–	–	–	–
CCOc1cc(N2CCC(N3CCN(CCc4cc(F)cc5c4n(C)c(=O)n5C4CCC(=O)NC4=O)CC3)CC2)c(CC)cc1Nc1ncc(Br)c(Nc2ccc3nc(CC)ccc3c2P(C)(C)=O)n1 (stereo not shown) [Example 462, 3-(4-(2-(4-(1-(4-((5-bromo-4-((5-(dimethylphosphoryl)-2-ethylquinolin-6-yl)amino)pyrimidin-2-yl)amino)-5-ethoxy-2-ethylphenyl)piperidin-4-yl)piperazin-1-yl)ethyl)-6-fluoro-3-methyl-2-oxo-2,3-dihydro-1H-benzo[d]imidazol-1-yl)piperidine-2,6-dione]	3.19	1.12	19.2	–	–	67.7	77.67	78.37	–	–	–	–	–	–	–	–
CCOc1cc(N2CCC(N3CCN(C(=O)C4CCN(c5cccc6c5oc(=O)n6C5CCC(=O)NC5=O)CC4)CC3)CC2)c(CC)cc1Nc1ncc(Br)c(Nc2ccc3nc(CC)ccc3c2P(C)(C)=O)n1 (stereo not shown) [Example 481, 3-(7-(4-(4-(1-(4-((5-bromo-4-((5-(dimethylphosphoryl)-2-ethylquinolin-6-yl)amino)pyrimidin-2-yl)amino)-5-ethoxy-2-ethylphenyl)piperidin-4-yl)piperazine-1-carbonyl)piperidin-1-yl)-2-oxobenzo[d]oxazol-3(2H)-yl)piperidine-2,6-dione]	–	–	–	–	–	–	64.14	77.65	1.06	2.14	5.27	86.5	91.9	0.871	–	–
CCOc1cc(N2CCC(N3CCN(CCc4cccc5c4oc(=O)n5C4CCC(=O)NC4=O)CC3)CC2)c(CC)cc1Nc1ncc(Br)c(Nc2ccc3c(=O)n(CC)ncc3c2P(C)(C)=O)n1 (stereo not shown) [Example 455, 3-(7-(2-(4-(1-(4-((5-bromo-4-((5-(dimethylphosphoryl)-2-ethyl-1-oxo-1,2-dihydrophthalazin-6-yl)amino)pyrimidin-2-yl)amino)-5-ethoxy-2-ethylphenyl)piperidin-4-y)piperazin-1-yl)ethyl)-2-oxobenzo[d]oxazol-3(2H)-yl)piperidine-2,6-dione]	2.31	0.47	3.83	–	–	121	77.73	79.19	–	–	–	–	–	–	87.13	77.76
